# Results as given in EPA's ToxRefDB 2.
# Key:
# [1] = test system: mouse; details: Carcinogenicity, cd1, Oral, [Not Specified], dose end: 99 week, group: systemic
# [2] = test system: rat; details: Subchronic oral toxicity in rodents, wistar, Feed, dose end: 6 week, group: systemic
# [3] = test system: rat; details: Subchronic oral toxicity in rodents, sprague dawley, Feed, dose end: 13 week, group: systemic
# [4] = test system: rat; details: Combined chronic toxicity/carcinogenicity, sprague dawley, Oral, Feed, dose end: 25 month, group: systemic
# [5] = test system: rat; details: Prenatal developmental toxicity study, other, Oral, Gavage/Intubation, dose end: 15 GD
# [6] = test system: dog; details: Sub-acute repeat dose toxicity; beagle; Oral; Gavage/Intubation; dose end: 1 month; group: systemic; systemic / in life observation / clinical signs / external lesion(s) + systemic / in life observation / clinical signs / reactivity to …
# [7] = test system: rat; details: Sub-acute repeat dose toxicity, sprague dawley, Oral, Gavage/Intubation, dose end: 1 month, group: systemic
# [8] = test system: rat; details: Prenatal developmental toxicity study, sprague dawley, Oral, Gavage/Intubation, dose end: 17 GD
# [9] = test system: rabbit; details: Prenatal developmental toxicity study, new zealand white, Oral, Gavage/Intubation, dose end: 19 GD
# [10] = test system: rat; details: Prenatal developmental toxicity study, sprague dawley, Oral, Gavage/Intubation, dose end: 17 GD; remark: listed apart in the source
# [11] = test system: rat; details: Fertility (Segment I), sprague dawley, Oral, Gavage/Intubation, dose end: 7 PND
# [12] = test system: mouse; details: Combined chronic toxicity/carcinogenicity, b6c3f1, Oral, Feed, dose end: 2 year, group: systemic
# [13] = test system: rabbit; details: Prenatal developmental toxicity study, new zealand white, Oral, Gavage/Intubation, dose end: 19 GD; remark: listed apart in the source
# [14] = test system: rabbit; details: Prenatal developmental toxicity study, new zealand white, Oral, Gavage/Intubation, dose end: 19 GD; remark: listed apart in the source
# [15] = test system: rat; details: Multigenerational reproductive toxicity study, sprague dawley, Oral, [Not Specified], dose end: 2 generation
# [16] = test system: rat; details: Combined chronic toxicity/carcinogenicity, sprague dawley, Oral, Feed, dose end: 2 year, group: systemic
# [17] = test system: rat; details: Sub-acute repeat dose toxicity, sprague dawley, Oral, Gavage/Intubation, dose end: 1 month, group: systemic; remark: listed apart in the source
# [18] = test system: rat; details: Multigenerational reproductive toxicity study; sprague dawley; Oral; Gavage/Intubation; dose end: 17 GD; group: parental; systemic / in life observation / body weight / body weight + systemic / in life observation / food consumption / food consumption + systemic…
# [19] = test system: mouse; details: Subchronic oral toxicity in rodents, other, Feed, dose end: 13 week, group: systemic
# [20] = test system: rat; details: Combined chronic toxicity/carcinogenicity, wistar, Oral, Feed, dose end: 104 week, group: systemic
# [21] = test system: rat; details: Subchronic oral toxicity in rodents, wistar, Feed, dose end: 13 week, group: systemic
# [22] = systemic / in life observation / body weight / body weight gain + systemic / in life observation / mortality / mortality + systemic / organ …
# [23] = systemic / in life observation / body weight / body weight gain
# [24] = systemic / in life observation / body weight / body weight gain + systemic / clinical chemistry / protein / protein + systemic / clinical …
# [25] = systemic / clinical chemistry / albumin / albumin + systemic / clinical chemistry / protein / protein
# [26] = systemic / clinical chemistry / cholesterol / cholesterol + systemic / in life observation / body weight / body weight + systemic / in life …
# [27] = systemic / clinical chemistry / alanine aminotransferase (alt/sgpt) / alanine aminotransferase (alt/sgpt) + systemic / clinical chemistry / …
# [28] = systemic / pathology microscopic / liver / hypertrophy
# [29] = group: developmental, developmental / developmental malformation / eye / anophthalmia + developmental / developmental malformation / eye / microphthalmia
# [30] = group: maternal, systemic / in life observation / body weight / body weight gain
# [31] = systemic / in life observation / body weight / body weight + systemic / in life observation / body weight / body weight gain + systemic / in…
# [32] = systemic / in life observation / clinical signs / body temperature
# [33] = group: developmental, systemic / in life observation / body weight / fetal weight
# [34] = group: maternal, systemic / in life observation / body weight / body weight gain + systemic / in life observation / clinical signs / body cold to touch + …
# [35] = group: maternal, reproductive / reproductive performance / aborted / aborted + reproductive / reproductive performance / postimplantation loss / …
# [36] = group: maternal, reproductive / reproductive performance / aborted / aborted + systemic / in life observation / clinical signs / body temperature + systemic…
# [37] = group: developmental, developmental / developmental malformation / bone / [other] + developmental / developmental malformation / bone / absent + developmental / …
# [38] = group: maternal, reproductive / reproductive performance / postimplantation loss / postimplantation loss + reproductive / reproductive performance / …
# [39] = group: maternal, systemic / in life observation / body weight / body weight gain + systemic / in life observation / food consumption / food consumption
# [40] = group: maternal, reproductive / reproductive performance / estrous cycle / abnormal + reproductive / reproductive performance / estrous cycle / corpora lutea…
# [41] = group: parental, systemic / in life observation / body weight / body weight gain + systemic / in life observation / clinical signs / salivation + systemic / …
# [42] = group: parental, systemic / in life observation / clinical signs / salivation
# [43] = systemic / in life observation / mortality / mortality + systemic / in life observation / body weight / body weight
# [44] = group: developmental, developmental / developmental malformation / brain / hydrocephaly
# [45] = group: maternal, reproductive / reproductive performance / postimplantation loss / postimplantation loss
# [46] = group: maternal, reproductive / reproductive performance / postimplantation loss / postimplantation loss + reproductive / reproductive performance / aborted…
# [47] = group: developmental, developmental / developmental malformation / brain / dilated cerebral ventricle + developmental / developmental malformation / brain / …
# [48] = group: maternal, systemic / in life observation / body weight / body weight + systemic / in life observation / body weight / body weight gain + reproductive…
# [49] = group: offspring, developmental / offspring survival late / viability index / viability index + systemic / in life observation / body weight / offspring (pup…
# [50] = group: parental, systemic / in life observation / body weight / body weight + systemic / in life observation / body weight / body weight gain + systemic / …
# [51] = systemic / pathology microscopic / liver / hyperplasia
# [52] = systemic / pathology microscopic / liver / hyperplasia + systemic / in life observation / body weight / body weight + systemic / pathology …
# [53] = systemic / clinical chemistry / cholesterol / cholesterol + systemic / organ weight / liver / absolute + systemic / organ weight / liver / …
# [54] = systemic / pathology microscopic / liver / arteritis + systemic / pathology microscopic / liver / degeneration
# [55] = systemic / clinical chemistry / urea nitrogen / urea nitrogen
# [56] = systemic / clinical chemistry / urea nitrogen / urea nitrogen + systemic / clinical chemistry / alanine aminotransferase (alt/sgpt) / …
# [57] = systemic / hematology / erythrocyte (rbc) count differential / erythrocyte (rbc) + systemic / hematology / hematocrit (hct) / hematocrit (…
# [58] = systemic / in life observation / body weight / body weight gain + systemic / clinical chemistry / cholesterol / cholesterol
compound,measurement,setting,value
CCCN(CCC)c1c([N+](=O)[O-])cc(C(F)(F)F)c(N)c1[N+](=O)[O-] [Prodiamine],LOAEL,[1]; [22],750 mg/kg/day
same,NEL,[1]; [22],7.5 mg/kg/day
same,NOAEL,[1]; [22],75 mg/kg/day
same,LEL,[1]; systemic / in life observation / body weight / body weight gain + systemic / organ weight / kidney / nos + systemic / in life observation / …,75 mg/kg/day
same,LEL,[2]; systemic / clinical chemistry / protein / protein,63 mg/kg/day
same,LOAEL,[2]; [23],681 mg/kg/day
same,NEL,[2]; [24],16.8 mg/kg/day
same,NOAEL,[2]; [24],63 mg/kg/day
same,LEL,[3]; [25],26.7 mg/kg/day
same,NEL,[3]; [25],< 26.7 mg/kg/day
same,LOAEL,[3]; [26],269 mg/kg/day
same,NOAEL,[3]; [26],80.1 mg/kg/day
same,LOAEL,[4]; [27],37 mg/kg/day
same,NOAEL,[4]; [27],9.1 mg/kg/day
same,LEL,[4]; [28],1.8 mg/kg/day
same,NEL,[4]; [28],< 1.8 mg/kg/day
same,LEL,[5]; [29],100 mg/kg/day
same,LOAEL,[5]; [29],100 mg/kg/day
same,NEL,[5]; [29],< 100 mg/kg/day
same,NOAEL,[5]; [29],< 100 mg/kg/day
same,LEL,[5]; [30],1000 mg/kg/day
same,LOAEL,[5]; [30],1000 mg/kg/day
same,NEL,[5]; [30],300 mg/kg/day
same,NOAEL,[5]; [30],300 mg/kg/day
O=C(Nc1ccc2[nH]ccc2c1)c1cc2cc(F)ccc2n1Cc1cccc(F)c1,LEL,[6],0.05 mg/kg/day
same,LOAEL,[6],> 1 mg/kg/day
same,NEL,[6],< 0.05 mg/kg/day
same,NOAEL,[6],≥ 1 mg/kg/day
same,LOAEL,[7]; [31],100 mg/kg/day
same,NOAEL,[7]; [31],2 mg/kg/day
same,LEL,[7]; [32],2 mg/kg/day
same,NEL,[7]; [32],< 2 mg/kg/day
same,LEL,[8]; [33],10 mg/kg/day
same,LOAEL,[8]; [33],> 400 mg/kg/day
same,NEL,[8]; [33],< 10 mg/kg/day
same,NOAEL,[8]; [33],≥ 400 mg/kg/day
same,LEL,[8]; [34],10 mg/kg/day
same,LOAEL,[8]; [34],> 400 mg/kg/day
same,NEL,[8]; [34],< 10 mg/kg/day
same,NOAEL,[8]; [34],≥ 400 mg/kg/day
same,LEL,[9]; [33],5 mg/kg/day
same,LOAEL,[9]; [33],> 900 mg/kg/day
same,NEL,[9]; [33],< 5 mg/kg/day
same,NOAEL,[9]; [33],≥ 900 mg/kg/day
same,LOAEL,[9]; [35],> 900 mg/kg/day
same,NOAEL,[9]; [35],≥ 900 mg/kg/day
same,LEL,[9]; [36],5 mg/kg/day
same,NEL,[9]; [36],< 5 mg/kg/day
same,LEL,[10]; [37],6 mg/kg/day
same,LOAEL,[10]; [37],6 mg/kg/day
same,NEL,[10]; [37],1 mg/kg/day
same,NOAEL,[10]; [37],1 mg/kg/day
same,LOAEL,[10]; [38],6 mg/kg/day
same,NOAEL,[10]; [38],1 mg/kg/day
same,LEL,[10]; [39],1 mg/kg/day
same,NEL,[10]; [39],< 1 mg/kg/day
same,LEL,[11]; [40],6 mg/kg/day
same,LOAEL,[11]; [40],6 mg/kg/day
same,NEL,[11]; [40],1 mg/kg/day
same,NOAEL,[11]; [40],1 mg/kg/day
same,LOAEL,[11]; [41],6 mg/kg/day
same,NOAEL,[11]; [41],1 mg/kg/day
same,LEL,[11]; [42],1 mg/kg/day
same,NEL,[11]; [42],< 1 mg/kg/day
C1CC[CH]([Sn+]([CH]2CCCCC2)[CH]2CCCCC2)CC1.[OH-] [Cyhexatin],LOAEL,[12]; systemic / in life observation / mortality / mortality,6 mg/kg/day
same,LEL,[12]; [43],6 mg/kg/day
same,NEL,[12]; [43],3 mg/kg/day
same,NOAEL,[12]; [43],3 mg/kg/day
same,LEL,[13]; [44],3 mg/kg/day
same,LOAEL,[13]; [44],> 3 mg/kg/day
same,NEL,[13]; [44],1 mg/kg/day
same,NOAEL,[13]; [44],≥ 3 mg/kg/day
same,LEL,[13]; [45],1 mg/kg/day
same,LOAEL,[13]; [45],1 mg/kg/day
same,NEL,[13]; [46],0.5 mg/kg/day
same,NOAEL,[13]; [46],0.5 mg/kg/day
same,LEL,[14]; [47],0.75 mg/kg/day
same,LOAEL,[14]; [47],> 3 mg/kg/day
same,NEL,[14]; [47],< 0.75 mg/kg/day
same,NOAEL,[14]; [47],≥ 3 mg/kg/day
same,LOAEL,"[14]; group: maternal, systemic / in life observation / body weight / body weight + systemic / in life observation / body weight / body weight gain",3 mg/kg/day
same,LEL,[14]; [48],3 mg/kg/day
same,NEL,[14]; [48],0.75 mg/kg/day
same,NOAEL,[14]; [48],0.75 mg/kg/day
same,LEL,[15]; [49],6 mg/kg/day
same,LOAEL,[15]; [49],> 6 mg/kg/day
same,NEL,[15]; [49],0.5 mg/kg/day
same,NOAEL,[15]; [49],≥ 6 mg/kg/day
same,LEL,"[15]; group: parental, systemic / in life observation / body weight / body weight + systemic / in life observation / body weight / body weight gain",0.5 mg/kg/day
same,LOAEL,[15]; [50],> 6 mg/kg/day
same,NEL,[15]; [50],0.1 mg/kg/day
same,NOAEL,[15]; [50],≥ 6 mg/kg/day
same,LOAEL,[16]; [51],1 mg/kg/day
same,NOAEL,[16]; [51],< 1 mg/kg/day
same,LEL,[16]; [52],1 mg/kg/day
same,NEL,[16]; [52],< 1 mg/kg/day
NC(=O)N(O)[C@@H]1COc2cc(OCc3ccccc3)ccc21,LOAEL,[17]; [53],> 1000 mg/kg/day
same,NOAEL,[17]; [53],≥ 1000 mg/kg/day
same,LEL,[17]; [54],100 mg/kg/day
same,NEL,[17]; [54],< 100 mg/kg/day
same,LEL,[18],1000 mg/kg/day
same,LOAEL,[18],> 1000 mg/kg/day
same,NEL,[18],100 mg/kg/day
same,NOAEL,[18],≥ 1000 mg/kg/day
C[N+](C)(C)CCO.O=c1ccc([O-])n[nH]1,LEL,[19]; [55],5620 mg/kg/day
same,LOAEL,[19]; [55],5620 mg/kg/day
same,NEL,[19]; [56],1100 mg/kg/day
same,NOAEL,[19]; [56],1100 mg/kg/day
same,LEL,[20]; [57],18.1 mg/kg/day
same,NEL,[20]; [57],< 18.1 mg/kg/day
same,LOAEL,[20]; systemic / in life observation / body weight / body weight + systemic / in life observation / body weight / body weight gain,1960 mg/kg/day
same,NOAEL,[20]; systemic / in life observation / body weight / body weight + systemic / in life observation / body weight / body weight gain + systemic / …,183 mg/kg/day
same,LOAEL,[21]; [23],4760 mg/kg/day
same,LEL,[21]; [58],4760 mg/kg/day
same,NEL,[21]; [58],1060 mg/kg/day
same,NOAEL,[21]; [58],1060 mg/kg/day
